Reference: US20210161146A1, “COMPOSITIONS AND METHODS FOR INHIBITING PATHOGENS ON PLANTS” (CH2O INCORPORATED, priority 2018, published 2021)

Key:
[1] = system: Erwinia amylovora ("Fire Blight"); details: before the ClO2 trial; cited from earlier work
[2] = system: Red Blotch Virus (Grablovirus or GRBav); test: Field trials on grape vines infected with Red Blotch Virus; type: in vivo
Method: Field trials were performed on grape vines infected with Red Blotch Virus (Grablovirus or GRBav).
Grape vines were treated with (36% 36% hydrochloric acid, 8% 60% active HEDPA, 0.5% 120 grain vinegar, 0.5% 85% phosphoric acid, and 55% water, all by weight) and (3.1% 60% active HEDPA, 1.6% 45% active potassium hydroxide, […], all by weight). ClO2 was made using a CH2O-ClO2 generator, and applied using an orchard sprayer. 200 gallons of treated water was applied per acre, and the treated water contained 15 ppm ClO2. The air temperature was 70° F.-90° F. on the days of application.
Half of the treated rows were pruned with shears dipped in water containing 30 to 50 ppm chlorine bleach.

[3] = system: Erwinia amylovora ("Fire Blight"); test: Field experiment in apple and pear tree orchard infected with Fire Blight; type: in vivo
Method: An apple and pear tree orchard infected with Erwinia amylovora (“Fire Blight”) was treated with 2 ppm, 5 ppm, 10 ppm, and 25 ppm ClO2 as described herein. Previous unsuccessful treatments included foliar medications and metal (Cu) suspended in oil, and Tetramyacin and Oxytetracycline application. These are very expensive medication option(s) that are becoming obsolete w/resistance.
The treatment protocol at this orchard included a three step approach: a) irrigation water; b) topical application before first bloom (e.g., begin topical treatment before primary bloom event and all the way through second blooming event); and c) ooze treatment/vector suppression. Given the timing of this trial, only step C is relevant.
Trees were sprayed when the temperature reached a minimum of 50° F. The temperature for treating bacterial ooze should be between 75-90° F., with highest “safe” rates of ClO2 used to prevent spread through insect and pollination activity. The residual phosphorus (from phosphonates) should have lasting protection properties even days after a topical application.
Rows were marked based on the concentration of ClO2 to be applied. Each concentration rate was applied slowly over four rows of trees. Two rows of trees were left untreated between each of the treated rows to prevent drift. After an application at a particular concentration was complete, the pump speed was increased or decreased to adjust the ClO2 concentration for the next application.

[4] = system: Jack Frost Blight; test: Orchard #6 field treatment of blight-infected apple trees; type: in vivo
Method: Apple trees at Orchard #6 infected with Jack Frost Blight (FIGS. 9A, 9B and 9C) were treated with 2 ppm (FIG. 10A), 5 ppm, 10 ppm (FIG. 10B) or 25 ppm (FIG. 10C) of ClO2. While blight was easily found in untreated areas of the block, only 2 strikes were found in the 2 ppm test area, no strikes were found in the 5 ppm area, 1 strike was found in the 10 ppm area, and 1 strike was found at the very end of the 25 ppm area (it is unclear whether that part of the area was actually treated or treated fully).

Row | Molecule | outcome of previous treatments of the orchard [1] | less GRBav than the untreated control area ([2]; 15 ppm ClO2, 200 gallons per acre, pruned with ClO2-sanitized shears) | less virus than the untreated control area ([2]; 15 ppm ClO2, 200 gallons per acre, pruned with shears dipped in chlorine bleach) | reduction in the amount of virus on the grape plants ([2]; 15 ppm ClO2, both pruning groups) | new blight strikes observed ([3]; 2 ppm zone) | new blight found ([3]; remaining test zones (5 ppm, 10 ppm, 25 ppm)) | ClO2 concentration effective for disease control ([3]; topical spray on infected trees) [ppm] | blight strikes found in test area ([4]; 2 ppm ClO2 test area) [strikes] | blight strikes found in test area ([4]; 5 ppm ClO2 area) | blight strikes found in test area ([4]; 10 ppm ClO2 area) [strike] | blight strikes found in test area ([4]; 25 ppm ClO2 area, very end (unclear whether treated fully)) [strike]
1 | Tetramyacin | unsuccessful |  |  |  |  |  |  |  |  |  | 
2 | [O][Cl+][O-] [ClO2, chlorine dioxide] |  | approximately 85% | approximately 75% | 75-85% | One | no new blight | ≥ 5 | 2 | no strikes | 1 | 1
